Reference: patent publication US4824829A, “Non-dusting antibiotic, anticoccidial premix compositions and a process for their manufacture” (American Cyanamid Company, priority 1985, dated 1989)

Columns and labels:
[1] = Relative Dermal Toxicities (LD50 Rabbit Dermal Toxicity); conditions: in vivo, topical or ocular, Female, maduramicin
[2] = in vivo; conditions: rabbit, topical or ocular
[3] = Segregation study (drug accumulation in medicated poultry feed after two hours on drum roller); assay type: physicochemical
Protocol: The segregation test is performed in a commercially-blended poultry feed, supplemented with 1000 ppm (0.1%) of drug, using the premix prepared in Example 1 in one blend and pure drug with an equivalent amount of corncob grits in the other as indicated in Table IV below.
These materials are placed into new one-gallon Nalgene dense polyethylene jars and placed on a drum roller for two hours. At the end of the mixing time, the jars are sampled in the horizontal position to remove the material which has accumulated and packed in the neck (#1), then the jars are emptied without shaking or tapping, and a cross-sectional sample taken from the bulk (#2); finally, the empty jar is extracted and assayed for residual drug (#3).

[4] = emptied jar residue, feed with 1000 ppm drug
[5] = neck of jar, feed with 1000 ppm drug

| #2 Bulk sample, Assay ([3]; cross-sectional bulk sample, feed with 1000 ppm drug) | #3 Bottle residue, Assay [3, 4] | #3 Bottle residue, Total Drug [3, 4] | #3 Bottle residue, Weight [3, 4] | separation of drug from the feed ([3]; mixed dry with feed) | actual amount of drug segregating, pure drug vs premix (times larger) ([3]; neck accumulation, pure drug relative to premix) | #1 Neck accumulation, Assay [3, 5] | #1 Neck accumulation, Total Drug [3, 5] | #1 Neck accumulation, Weight [3, 5] | Structure (SMILES) | LD50 [1] | LD50 [2] | tendency to accumulate in the spots of least movement ([3]; mixed dry with feed, neck of the bottle, vs premix) |
| --- | --- | --- | --- | --- | --- | --- | --- | --- | --- | --- | --- | --- |
| – | – | – | – | – | – | – | – | – | CO[C@@H]1[C@@H](OC)[C@H](C)[C@@](O)(CC(=O)O)O[C@H]1[C@H](C)[C@H]1O[C@@]2(CC[C@@](C)([C@H]3CC[C@@](C)([C@@H]4O[C@@H]([C@H]5O[C@](C)(O)[C@H](C)C[C@@H]5C)C[C@@H]4O[C@@H]4C[C@H](OC)[C@@H](OC)[C@H](C)O4)O3)O2)C[C@H](O)[C@H]1C [Composition 1, maduramicin] | 3.7 mg/kg | 8.9 mg/kg | – |
| 1115 ppm | 2300 ppm | 1.85 mg | 0.80 g | separates freely from the feed | more than seven | 1745 ppm | 14.8 mg | 8.5 g | COC1CC(OC2CC(C3OC(C)(O)C(C)CC3C)OC2C2(C)CCC(C3(C)CCC4(CC(O)C(C)C(C(C)C5OC(O)(CC(=O)O)C(C)C(OC)C5OC)O4)O3)O2)OC(C)C1OC (stereo not drawn) [Pure Drug] | – | – | greater tendency to accumulate in the spots of least movement |
